Test results: publication PMC7932537, “Quantitative profiling of protease specificity” (PLoS Computational Biology, 2021)

Experiments:
[1] = system: MMP-9; assay: Substrate phage display with NGS: relative probability (RP) of P3-P1' tetramer clusters; assay type: biochemical, human; details: MMP9; RP of the substrate's P3-P1' tetramer, substrate phage display with NGS;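 note: ratio of tetramer probability after protease selection to that in naive phage library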
[2] = target: T1, MMP-2 (Homo sapiens, UniProt P08253); assay: K(obs) of individual phage substrates (set of 1369); assay type: biochemical; details: MMP2; individual phage substrate from the set of 1369 peptides; hyphen in the sequence marks the cleavage position
T1 sequence (P08253 110-660): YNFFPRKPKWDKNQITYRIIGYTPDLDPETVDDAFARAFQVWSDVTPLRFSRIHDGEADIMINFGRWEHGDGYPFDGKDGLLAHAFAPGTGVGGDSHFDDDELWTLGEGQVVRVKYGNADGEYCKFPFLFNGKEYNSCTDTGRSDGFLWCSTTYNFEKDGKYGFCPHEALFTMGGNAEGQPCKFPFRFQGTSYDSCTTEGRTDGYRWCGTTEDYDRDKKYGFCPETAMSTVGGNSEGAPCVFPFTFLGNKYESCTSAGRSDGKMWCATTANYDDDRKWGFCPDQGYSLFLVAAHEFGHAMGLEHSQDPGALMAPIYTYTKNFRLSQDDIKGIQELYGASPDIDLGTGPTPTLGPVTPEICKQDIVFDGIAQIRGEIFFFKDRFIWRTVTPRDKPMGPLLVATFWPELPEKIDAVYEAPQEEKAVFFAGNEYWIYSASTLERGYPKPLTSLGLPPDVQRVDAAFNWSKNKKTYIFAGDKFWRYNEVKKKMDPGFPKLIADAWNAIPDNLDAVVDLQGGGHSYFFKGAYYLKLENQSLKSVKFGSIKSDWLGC

[3] = target: MMP-9 (Homo sapiens, UniProt P14780); assay: as above; assay type: biochemical; details: MMP9; individual phage substrate of the set of 1369 peptides; dash in sequence marks cleavage position
Chain of MMP-9 (Homo sapiens, UniProt P14780) (P14780 94-707): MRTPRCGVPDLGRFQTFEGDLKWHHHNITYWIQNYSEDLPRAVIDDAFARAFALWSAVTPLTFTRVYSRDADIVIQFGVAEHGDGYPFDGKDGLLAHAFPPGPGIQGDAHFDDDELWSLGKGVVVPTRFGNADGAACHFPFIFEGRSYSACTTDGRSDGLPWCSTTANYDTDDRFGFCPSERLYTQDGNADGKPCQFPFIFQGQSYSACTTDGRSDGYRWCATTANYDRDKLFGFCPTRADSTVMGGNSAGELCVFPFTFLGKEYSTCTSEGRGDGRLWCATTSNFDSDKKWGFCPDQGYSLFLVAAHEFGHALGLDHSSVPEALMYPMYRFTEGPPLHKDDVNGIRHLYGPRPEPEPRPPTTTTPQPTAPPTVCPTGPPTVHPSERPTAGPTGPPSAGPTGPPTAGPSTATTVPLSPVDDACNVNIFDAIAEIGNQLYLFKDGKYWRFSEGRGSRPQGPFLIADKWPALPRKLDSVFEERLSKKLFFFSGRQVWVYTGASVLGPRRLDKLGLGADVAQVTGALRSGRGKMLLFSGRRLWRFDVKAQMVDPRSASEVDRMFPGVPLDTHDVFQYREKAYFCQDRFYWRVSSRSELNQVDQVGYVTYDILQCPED

Row | Substance | relative probability (RP) [1] | Kobs [2] [M⁻¹ s⁻¹] | Kobs [3] [M⁻¹ s⁻¹]
1 | EWPSR-MTASG | 33.7336 | 6396.07 | 3964.21
2 | LKVMN-YTASG | 29.3662 | 3637.04 | 12792.1
3 | KQLAS-LTASG | 2.45 | 12792.1 | 690.17
4 | GSAIP-LWTAS | 32.5296 | 1418.96 | 2038.8
5 | IMHRA-LTASG | 18.7073 | 12792.1 | 9740.44
6 | LVVRA-HTASG | 18.814 | 4082.43 | 5461.43
7 | GGSGN-LTVKT | 1.504 | 12792.1 | 0
8 | GVVGA-LRTAS | 19.0529 | 10866.7 | 874.197
9 | KYHAW-MTASG | 0.08727 | 7386.83 | 27.918
10 | GFTRW-LTASG | 25.6075 | 4763.33 | 6396.07
11 | TVPWS-VTASG | 31.0554 | 1071.29 | 12792.1
12 | HMPLG-LTASG | 48.9856 | 12792.1 | 12792.1
13 | CAPTA-LTASG | 40.9775 | 12792.1 | 10866.7
14 | GVPRY-LRTAS | 44.5304 | 12792.1 | 12792.1
15 | VLFGA-LTASG | 2.95 | 8321.48 | 386.839
16 | GAPAK-LRTAS | 39.5582 | 12792.1 | 10866.7
17 | GMPRA-YRTAS | 46.2238 | 12792.1 | 12792.1
18 | GLPAA-LTTAS | 47.6262 | 12792.1 | 12792.1
19 | VEAVA-ITASG | 21.5568 | 5090.5 | 4922.1

Row | Substance | relative probability (RP) [1] | Kobs [2] [M⁻¹ s⁻¹] | Kobs [3] [M⁻¹ s⁻¹]
20 | SCVRM-MTASG | 24.5728 | 1373.05 | 1561.44
21 | STIAH-YTASG | 10.3185 | 12792.1 | 451.441
22 | WNPSY-LTASG | 40.8983 | 12792.1 | 8941.32
23 | SGPRS-WTNTA | 40.7744 | 5889.62 | 5090.5
24 | PSLGQ-LTASG | 2.507 | 12792.1 | 56.119
25 | SQLGL-LTASG | 4.41 | 12792.1 | 142.481
26 | PQMGS-LTASG | 3.398 | 12792.1 | 201.585
27 | TDIGE-ITASG | 0.4519 | 6131.32 | 0
28 | RQPFL-LTASG | 33.1122 | 1154.21 | 12792.1
29 | RDMSY-LTASG | 0.7522 | 4335.13 | 0
30 | SGPFS-NRATA | 1.097 | 292.668 | 2687.73
31 | FQIGS-LTASG | 7.1912 | 12792.1 | 1465.65
32 | FYFSN-LTASG | 0.7913 | 12792.1 | 0
33 | GRPSF-LKTAS | 37.0272 | 12792.1 | 8321.48
34 | SGVRW-STSTA | 18.5117 | 1071.29 | 7015.91
35 | SGPSW-IMRTA | 43.303 | 12792.1 | 12792.1
36 | TIPSW-STASG | 17.8128 | 5461.43 | 2476.66
37 | SGPAS-LLNTA | 46.2982 | 12792.1 | 9740.44
38 | TGPKL-ITASG | 25.2703 | 1071.29 | 6396.07

Row | Substance | relative probability (RP) [1] | Kobs [2] [M⁻¹ s⁻¹] | Kobs [3] [M⁻¹ s⁻¹]
39 | GMPLL-LRTAS | 32.5638 | 8321.48 | 12792.1
40 | GSHAA-LRTAS | 0.9522 | 12792.1 | 0
41 | SGVRG-MHGTA | 38.9419 | 1610.61 | 5667.28
42 | YASIR-TASGA | 0.562 | 12792.1 | 2545.25
43 | QMPLQ-ITASG | 44.6329 | 8941.32 | 6131.32
44 | KDPKF-LTASG | 42.7484 | 4613.14 | 10866.7
45 | IGVRA-LTASG | 43.1929 | 12792.1 | 12792.1
46 | WDIRS-LTASG | 30.8005 | 12792.1 | 9740.44
47 | FKAVA-LTASG | 32.1946 | 12792.1 | 12792.1
48 | GTPIE-LYTAS | 35.3641 | 8321.48 | 9740.44
49 | ILLSP-LTASG | 4.611 | 12792.1 | 1030.73
50 | TQPSP-FTASG | 37.3217 | 12792.1 | 9740.44
51 | NGPYN-LTASG | 49.1716 | 5461.43 | 12792.1
52 | SGPLK-ITRTA | 38.9391 | 0 | 2837.92
53 | FVVRL-LTASG | 11.0035 | 2615.58 | 2615.58
54 | GYPAG-LRTAS | 47.2274 | 12792.1 | 12792.1
55 | QRVRG-VTASG | 13.8249 | 1327.88 | 619.843
56 | GNPLG-IRTAS | 48.5606 | 12792.1 | 12792.1
57 | GVPRG-VRTAS | 42.1832 | 12792.1 | 10866.7
